Laboratory results: publication PMC6934184, “Selective DNA-PKcs inhibition extends the therapeutic index of localized radiotherapy and chemotherapy” (The Journal of Clinical Investigation, 2019)

Target: T1, SIK1 (Homo sapiens, UniProt P57059)
T1 construct: purchased Thermo Fisher Scientific (Life Technologies) SelectScreen
Assay: SelectScreen LanthaScreen
Assay type: binding
Details: 1 µM
How it was run: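 NU5455 was profiled across the SelectScreen Broad panel of kinase activity and binding assays. Z'LYTE reactions such as CSF1R ran at apparent Km ATP, while the Adapta CAMK1 assay used ATP listed as 10. Values are given as percent.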

T1 sequence (P57059 whole entry): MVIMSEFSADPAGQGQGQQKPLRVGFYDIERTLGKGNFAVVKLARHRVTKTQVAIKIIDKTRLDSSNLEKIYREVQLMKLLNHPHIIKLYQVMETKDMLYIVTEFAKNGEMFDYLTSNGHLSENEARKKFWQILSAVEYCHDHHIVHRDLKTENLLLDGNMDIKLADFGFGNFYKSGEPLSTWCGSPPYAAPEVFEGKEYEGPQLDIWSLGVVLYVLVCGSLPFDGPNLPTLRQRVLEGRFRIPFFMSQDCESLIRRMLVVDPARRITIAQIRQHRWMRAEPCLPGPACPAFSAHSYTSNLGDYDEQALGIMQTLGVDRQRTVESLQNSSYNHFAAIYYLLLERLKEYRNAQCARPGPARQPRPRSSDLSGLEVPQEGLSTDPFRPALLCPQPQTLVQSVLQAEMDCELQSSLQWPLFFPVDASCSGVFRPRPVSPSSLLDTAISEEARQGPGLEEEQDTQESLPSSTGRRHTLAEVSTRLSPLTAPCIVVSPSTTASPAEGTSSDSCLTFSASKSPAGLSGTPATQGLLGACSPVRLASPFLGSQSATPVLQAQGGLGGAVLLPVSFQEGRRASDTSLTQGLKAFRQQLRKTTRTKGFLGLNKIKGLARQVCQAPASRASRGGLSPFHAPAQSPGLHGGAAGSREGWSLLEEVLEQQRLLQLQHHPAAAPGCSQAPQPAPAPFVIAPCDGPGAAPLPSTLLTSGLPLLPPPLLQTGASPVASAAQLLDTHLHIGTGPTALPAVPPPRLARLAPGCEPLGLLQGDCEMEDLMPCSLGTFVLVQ

Question: For `CN(C(=O)CN1CCOCC1)c1ccc2sc3c(-c4cccc5c(=O)cc(N6CC7CCC(C6)O7)oc45)cccc3c2c1` [NU5455], which “% displacement” value is on record?
Answer: 1.3%
